Publication PMC6770006, “Novel Heat Shock Protein 90 Inhibitors Suppress P-Glycoprotein Activity and Overcome Multidrug Resistance in Cancer Cells” (International Journal of Molecular Sciences, 2019)

Key:
DLD1 cells = assay: MTT assay, cell growth inhibition, DLD1; format: cell-based; settings: Homo sapiens, DLD-1, 72 h
Protocol: (§1) A series of 3-aryl-naphtho[2,3-d]isoxazole-4,9-diones were synthesized (Scheme 1, Figure 1) and their growth inhibition activity was tested in vitro on human non-small cell lung carcinoma NCI-H460, colorectal carcinoma DLD1 and their corresponding MDR cells (NCI-H460/R and DLD1-TxR, respectively), as well as normal embryonic lung fibroblasts MRC-5. The differences in cell growth inhibition between cancer and normal cells obtained by the MTT assay after 72 h treatment are presented in Table 1. The effect of compounds is presented as IC50 values that correspond to the 50% of cell growth inhibition.
(§2) Cell viability was assessed by the MTT assay (AppliChem GmbH, Darmstadt, Germany). Cells grown in 25 cm^2 tissue flasks were trypsinized and 1000 cells/well were seeded into flat-bottomed 96-well tissue culture plates and incubated overnight. Subsequently, the cells were treated with increasing concentrations of Hsp90 inhibitors for 72 h: compound 3 (0.1–2.5 µM), compound 4 (0.25–5 µM), compound 5 (0.5–25 µM), compound 6 (50–1000 nM), compound 7 (10–250 nM), compound 8 (0.25–5 µM), compound 9 (10–250 nM), compound 10 (0.5–25 µM), compound 13 (0.5–10 µM), compound 14 (1–25 µM), and compound 15 (10–250 nM). […] After treatment, MTT was added to each well in a final concentration of 0.2 mg/mL for 4 h. Formazan product was dissolved in 200 µl of DMSO, and the absorbance was measured at 540 nm using an automatic LKB 5060-006 Micro Plate Reader (Vienna, Austria). IC50 value was defined as a concentration of the drug that inhibited cell growth by 50% and was calculated by nonlinear regression analysis using GraphPad Prism 6.0 for Windows (La Jolla, CA, USA). Relative selectivity towards cancer cells was calculated as a relation between IC50 value obtained in MRC-5 cells and an average IC50 value from four tested cancer cell lines.

NCI-H460 cells = assay: MTT assay, cell growth inhibition, NCI-H460; format: cell-based; settings: Homo sapiens, 72 h, three independent experiments
Protocol: as §1, §2

NCI-H460/R cells [1] = assay: MTT assay, cell growth inhibition, NCI-H460/R (MDR); format: cell-based, human
Protocol: as §1
(§3) Human colorectal carcinoma (DLD1), non-small cell lung carcinoma (NCI-H460), and normal embryonic lung fibroblast (MRC-5) cell lines were purchased from the American Type Culture Collection, Rockville, MD. P-gp overexpressing multidrug resistant DLD1-TxR cells were selected by continuous exposure to stepwise increasing concentrations of paclitaxel from DLD1 cells, while NCI-H460/R cells were selected from NCI-H460 cells after DOX selective pressure. MDR cancer cell lines, DLD1-TxR and NCI-H460/R, and their sensitive counterparts were maintained in RPMI 1640 medium supplemented with 10% FBS, 2 mM L-glutamine, and 10,000 U/mL penicillin, 10 mg/mL streptomycin, 25 mg/mL amphotericin B solutions. MRC-5 cells were cultured in DMEM supplemented with 10% FBS, 4 g/L glucose, 2 mM L-glutamine and 5000 U/mL penicillin, 5 mg/mL streptomycin solution. All cell lines were sub-cultured at 72 h intervals using 0.25% trypsin/EDTA and seeded into a fresh medium at 8000 cells/cm^2. All cell lines were maintained at 37 °C in a humidified 5% CO2 atmosphere.
as §2

DLD1-TxR cells = assay: MTT assay, cell growth inhibition, DLD1-TxR (MDR); format: cell-based, human; settings: 72 h
Protocol: as §1, §3, §2

Hsp90 = test system: Hsp90; set-up: method as in PMID 22538015; settings: read-out: Hsp90 Affinity binding; cited from earlier work
[2] = test system: NCI-H460, NCI-H460/R, DLD1, DLD1-TxR cells; assay: MTT assay, grouping of inhibitors by IC50 over the cancer cell lines; format: cell-based; settings: Homo sapiens, Figure 2b, read-out: IC50 values (grouping for Pearson correlation)
Protocol: When the IC50 values obtained by the MTT assay were compared to Hsp90 affinity binding IC50 values (Table 1), a positive Pearson correlation (r > 0.5) was found for all cancer cell lines (Figure 2b).
as §2

MRC-5 cells = assay: MTT assay, normal embryonic lung fibroblasts MRC-5; format: cell-based, human; settings: Homo sapiens, MRC5; MTT, 72 h, normal fibroblasts; read-out: Cell growth inhibition IC50, MRC-5
Protocol: as §1, §2

P-gp = P-gp (Homo sapiens, UniProt P08183); assay: Rhodamine 123 accumulation assay (P-gp activity, flow cytometry); format: cell-based; set-up: P-gp overexpressing multidrug resistant DLD1-TxR cells were selected by continuous exposure to stepwise increasing concentrations of paclitaxel from DLD1 cells; endogenous in cells; host or cells: NCI-H460/R and DLD1-TxR (drug-selected MDR human cancer cells); settings: MDR NCI-H460/R and DLD1-TxR cells, 30 min, one concentration per compound (100 nM-10 µM), Figure 3a
Protocol: To study the effect of Hsp90 inhibitors on P-gp activity in MDR cancer cells, intracellular accumulation of the P-gp substrate rhodamine 123 (Rho 123) was analyzed by flow cytometry after 30 min treatment (Figure 3a). A well-known inhibitor of P-gp activity, tariquidar (TQ), was included as a positive control.
The accumulation of Rho 123, a fluorescent P-gp substrate, was measured by flow cytometry. The intensity of the fluorescence is proportional to Rho 123 accumulation in the cell. All cell lines were seeded in adherent 6-well plates and grown overnight. DLD1-TxR and NCI-H460/R cells were treated for 30 min with the following concentrations of Hsp90 inhibitors: 500 nM compound 3, 1 µM compound 4, 10 µM compound 5, 500 nM compound 6, 500 nM compound 7, 1 µM compound 8, 500 nM compound 9, 1 µM compound 10, 1 µM compound 13, 10 µM compound 14, 100 nM compound 15. TQ (10 nM) was used as a positive control for Rho 123 accumulation. Rho 123 (5 μM) was simultaneously added with the investigated compounds and the cells were incubated at 37 °C in 5% CO2 for 30 min. The cells were then trypsinized, pelleted by centrifugation, washed with PBS and placed in ice-cold PBS. The samples were kept on ice in the dark until the analysis on CyFlow Space Partec flow cytometer (Sysmex Partec GmbH, Görlitz, Germany). The fluorescence of Rho 123 was detected on fluorescence channel 1 (FL1-H) at 530 nm. A minimum of 10,000 events were collected for each sample and the obtained results were analyzed using Summit software.

NCI-H460/R cells [3] = assay: Combined treatment of compound 5 with DOX, MTT, median effect analysis; format: cell-based, human; settings: Homo sapiens, NCI-H460, 72 h, DOX alone, 72 h
Protocol: The combined effects of compound 5 with DOX as well as with PTX were studied in NCI-H460/R and DLD1-TxR cells, respectively, by MTT assay. In simultaneous treatments that lasted 72 h in NCI-H460/R cells, three concentrations of compound 5 (2.5, 5, and 10 µM) were combined with increasing concentrations of DOX (250, 500 and 1000 nM), while in DLD1-TxR cells different concentrations of compound 5 (1, 2.5, and 5 µM) were combined with increasing concentrations of PTX (100, 250 and 500 nM). The nature of the interaction between Hsp90 inhibitors and DOX/PTX was analyzed with CalcuSyn software v1.1 (Biosoft, Cambridge, UK) that uses the Combination Index method based on the multiple drug effect equation [54]. Three data points were used for each single drug in each experiment. The non-constant ratio combination was chosen to assess the effect of both drugs in combination. The results are presented in a fraction-affected CI graph. Values of CI < 1 point to a pronounced additive effect or synergism (the smaller value, the greater the degree of synergy). A value of CI = 1 indicates an additive effect, while values of CI > 1 point to an antagonistic effect.

P-gp expression = assay: Flow cytometric analysis of P-gp expression; format: cell-based, human; settings: 72 h; 5 µM 5, 200 nM 7, 100 nM 9, 10 nM TQ, 50 nM DOX, 50 nM PTX
Protocol: P-glycoprotein expression level in NCI-H460, NCI-H460/R, DLD1, and DLD1-TxR and cells was measured by flow cytometry. All cell lines were seeded in adherent 6-well plates and treated with Hsp90 inhibitors for 72 h at the following concentrations: 5 µM compound 5, 200 nM compound 7, 100 nM compound 9 (NCI-H460 and DLD1), and 10 µM compound 5, 500 nM compound 7, 500 nM compound 9 (NCI-H460/R and DLD1-TxR). Cells were also treated with 10 nM TQ, a non-competitive P-gp inhibitor, which served as a positive control. In addition, sensitive cells (NCI-H460 and DLD1) were treated with 50 nM DOX and 50 nM PTX that served as positive controls for the induction of P-gp expression. Then, cells were collected by trypsinization, washed with PBS, and directly immunostained by FITC-conjugated anti-P-gp antibody according to the manufacturer’s protocol. The samples were kept in the dark until the analysis on CyFlow Space Partec flow cytometer (Sysmex Partec GmbH, Görlitz, Germany). The fluorescence of FITC-conjugated anti-P-gp was detected on fluorescence channel 1 (FL1-H) at 530 nm. A minimum of 10,000 events were collected for each sample (the gate excluded cell debris and dead cells) and the obtained results were analyzed with Summit software v4.3 (Dako Colorado Inc., Fort Collins, CO, USA).

P-gp, sequence (P08183 whole entry): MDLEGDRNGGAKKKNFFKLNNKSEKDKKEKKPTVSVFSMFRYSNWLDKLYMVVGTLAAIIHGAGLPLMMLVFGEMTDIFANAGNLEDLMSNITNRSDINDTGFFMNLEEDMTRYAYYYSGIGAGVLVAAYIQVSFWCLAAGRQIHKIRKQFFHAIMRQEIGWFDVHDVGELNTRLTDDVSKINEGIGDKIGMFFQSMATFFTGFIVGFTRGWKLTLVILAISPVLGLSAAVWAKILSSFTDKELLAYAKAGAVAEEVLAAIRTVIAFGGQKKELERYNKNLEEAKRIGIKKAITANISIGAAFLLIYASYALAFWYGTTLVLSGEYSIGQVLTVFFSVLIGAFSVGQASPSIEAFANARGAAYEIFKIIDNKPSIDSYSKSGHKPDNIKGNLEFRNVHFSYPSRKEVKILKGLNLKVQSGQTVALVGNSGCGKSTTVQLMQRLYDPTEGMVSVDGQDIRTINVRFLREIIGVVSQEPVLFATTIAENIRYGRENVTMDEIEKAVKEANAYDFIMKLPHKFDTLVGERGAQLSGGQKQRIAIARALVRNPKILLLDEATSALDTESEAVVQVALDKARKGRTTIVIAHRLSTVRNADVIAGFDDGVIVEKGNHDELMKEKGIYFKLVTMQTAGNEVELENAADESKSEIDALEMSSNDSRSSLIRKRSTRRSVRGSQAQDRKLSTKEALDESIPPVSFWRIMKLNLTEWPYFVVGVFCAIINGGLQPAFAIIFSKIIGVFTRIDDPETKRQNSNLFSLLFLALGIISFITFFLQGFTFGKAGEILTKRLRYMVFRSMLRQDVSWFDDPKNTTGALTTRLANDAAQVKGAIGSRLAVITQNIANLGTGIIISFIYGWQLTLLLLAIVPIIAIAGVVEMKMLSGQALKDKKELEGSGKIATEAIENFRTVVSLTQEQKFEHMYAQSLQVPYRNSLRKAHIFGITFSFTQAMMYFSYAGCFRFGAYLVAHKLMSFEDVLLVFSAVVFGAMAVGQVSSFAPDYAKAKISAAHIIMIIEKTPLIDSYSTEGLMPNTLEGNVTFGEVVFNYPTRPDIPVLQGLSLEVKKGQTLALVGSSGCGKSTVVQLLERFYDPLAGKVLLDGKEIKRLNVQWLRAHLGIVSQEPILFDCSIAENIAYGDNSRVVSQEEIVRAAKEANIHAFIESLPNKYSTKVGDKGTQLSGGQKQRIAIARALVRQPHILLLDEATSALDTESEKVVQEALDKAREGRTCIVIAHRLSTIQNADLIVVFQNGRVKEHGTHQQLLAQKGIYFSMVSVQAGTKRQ

Row | SMILES | IC50 (DLD1 cells) [nM] | IC50 (NCI-H460 cells) [nM] | Efficacy in MDR NCI-H460/R cells compared with sensitive NCI-H460 (NCI-H460/R cells [1]; 72 h) | IC50 (NCI-H460/R cells [1]; Homo sapiens, NCI-H460, 72 h, MDR cells) [nM] | Efficacy in MDR DLD1-TxR cells compared with sensitive DLD1 (DLD1-TxR cells) | IC50 (DLD1-TxR cells; Homo sapiens, MDR cells) [nM] | IC50 (Hsp90) [nM] | IC50 [2] [nM] | IC50 (MRC-5 cells) [nM] | P-gp activity / Rho 123 accumulation (P-gp) | IC50 (NCI-H460/R cells [3]) [nM] | Change in P-gp expression, DLD1 (P-gp expression) | Change in P-gp expression, NCI-H460 (P-gp expression)
1 | O=C1c2ccccc2C(=O)c2c(-c3ccccc3)noc21 [Compound 3] | 925 ± 32 | 785 ± 32 | better efficacy in cells with MDR phenotype | 599 ± 20 | better efficacy in cells with MDR phenotype | 644 ± 20 | 7850 | < 1000 | 636 ± 23 | did not influence the P-gp activity |  |  | 
2 | COc1cccc2c1C(=O)c1c(O)c3c(c(O)c1C2=O)C[C@@](O)(C(=O)CO)C[C@@H]3O[C@H]1C[C@H](N)[C@H](O)[C@H](C)O1 [DOX, doxorubicin] |  |  |  |  |  |  |  |  |  |  | 2270 ± 42.4 | significantly increased P-gp expression | significantly increased P-gp expression
